Experimental data published in patent US20240024338A1, “CARBIDOPA AND L-DOPA PRODRUGS AND METHODS OF USE” (AbbVie Inc., priority 2016, published 2024).

How the values were obtained:
[1] = for Bioconversion ratio (prodrug to active drug), Value: projected for human, mean of ratios observed in preclinical animals
[2] = 1-Day stability study of prodrugs in aqueous solution; type: physicochemical; settings: aqueous solution 80 μg/mL, ambient storage
Method: The L-dopa phosphate prodrugs and the carbidopa phosphate prodrugs were evaluated in a stability study.

[3] = 1-Day stability study, diphosphate combination solution; type: physicochemical; settings: combination solution: L-dopa 3′,4′-diphosphate 35 mg/mL + carbidopa 3′,4′-diphosphate 8.7 mg/mL, pH 6.2, room temperature, nitrogen purged
Method: In addition, a solution combining the diphosphates of each compound (L-dopa 3′, 4′-diphosphate at 35 mg/mL and carbidopa 3′, 4′-diphosphate at 8.7 mg/mL) was monitored over one day at room temperature. This sample was purged with nitrogen to remove oxygen.

[4] = Phosphate prodrug solubility study in water; type: physicochemical; settings: for Solubility: water, ambient, visual assessment; for solubility compared to L-dopa and carbidopa (FIG. 1): pH of 7.4
Method: The L-dopa phosphate prodrugs and the carbidopa phosphate prodrugs were evaluated in a solubility study. The solubility values of the phosphate prodrugs in water under ambient conditions were determined by visual assessment. Table 13-A reports the results of the study, including the measured values for L-dopa and carbidopa.

[5] = In vitro bioconversion study (blood), human; type: in vitro ADME; settings: prodrug 2.5 μg/mL, 37° C.
Method: (§2) The in vitro bioconversion of the L-dopa phosphate prodrugs to L-dopa and the carbidopa phosphate prodrugs to carbidopa was evaluated in several studies. In brief, the L-dopa and carbidopa phosphate prodrugs (2.5 μg/mL) were incubated with tissue homogenate or fractions from rats, mini-pigs, or human, including blood, skin homogenate (3 mg/mL), liver microsomes (1 mg/mL), liver S9 fraction (1 mg/mL), kidney S9 fraction (1 mg/mL), and intestine S9 fractions (1 mg/mL). The reaction mixtures were incubated at 37° C. for 5 to 6 time points within 1 to 2 hours. At the end of each time point, the reaction mixtures were quenched by 2 to 3 volumes of 5% trichloroacetic acid in water. After quenching, the mixtures were centrifuged at 3000 rpm for 20 minutes, and the supernatants were analyzed by LC-MS for quantitation of the prodrug, L-dopa or carbidopa. The in vitro bioconversion was assessed by monitoring both time-dependent depletion of the prodrug and the formation of the corresponding L-dopa or carbidopa.

[6] = In vitro bioconversion study (blood), mini-pig; type: in vitro ADME; settings: prodrug 2.5 μg/mL, 37° C.
Method: as §2

[7] = In vitro bioconversion study (skin homogenates), human; settings: human skin homogenate 3 mg/mL, prodrug 2.5 μg/mL, 37° C.
[8] = In vitro bioconversion study (skin homogenates), rat; settings: rat skin homogenate 3 mg/mL, prodrug 2.5 μg/mL, 37° C.
[9] = In vitro bioconversion study (skin homogenates), mini-pig; settings: mini-pig skin homogenate 3 mg/mL, prodrug 2.5 μg/mL, 37° C.
[10] = In vitro bioconversion study, human liver microsomes; type: in vitro ADME; settings: human liver microsomes 1 mg/mL, prodrug 2.5 μg/mL, 37° C.
Method: as §2

[11] = In vitro bioconversion study, liver S9 fraction, rat; type: in vitro ADME; settings: rat liver S9 fraction 1 mg/mL, prodrug 2.5 μg/mL, 37° C.
Method: as §2

[12] = In vitro bioconversion study, liver S9 fraction, mini-pig; type: in vitro ADME; settings: mini-pig liver S9 fraction 1 mg/mL, prodrug 2.5 μg/mL, 37° C.
Method: as §2

[13] = In vitro bioconversion study, liver S9 fraction, human; type: in vitro ADME; settings: human liver S9 fraction 1 mg/mL, prodrug 2.5 μg/mL, 37° C.
Method: as §2

[14] = In vitro bioconversion study, kidney S9 fraction, rat; type: in vitro ADME; settings: rat kidney S9 fraction 1 mg/mL, prodrug 2.5 μg/mL, 37° C.
Method: as §2

[15] = In vitro bioconversion study, kidney S9 fraction, human; type: in vitro ADME; settings: human kidney S9 fraction 1 mg/mL, prodrug 2.5 μg/mL, 37° C.
Method: as §2

[16] = In vitro bioconversion study (intestinal S9 fractions), human; type: in vitro ADME; settings: human intestinal S9 fraction 1 mg/mL, prodrug 2.5 μg/mL, 37° C.
Description: (§1) The t1/2 appeared to be shorter in human intestinal S9 than in rat intestinal S9.

[17] = In vitro bioconversion study (intestinal S9 fractions), rat; type: in vitro ADME; settings: rat intestinal S9 fraction 1 mg/mL, prodrug 2.5 μg/mL, 37° C.
Description: as §1

[18] = In vitro bioconversion study (blood), rat; settings: prodrug 2.5 μg/mL, 37° C.
Method: The in vitro bioconversion of the L-dopa phosphate prodrugs to L-dopa and the carbidopa phosphate prodrugs to carbidopa was evaluated in several studies. […] The reaction mixtures were incubated at 37° C. for 5 to 6 time points within 1 to 2 hours. At the end of each time point, the reaction mixtures were quenched by 2 to 3 volumes of 5% trichloroacetic acid in water. After quenching, the mixtures were centrifuged at 3000 rpm for 20 minutes, and the supernatants were analyzed by LC-MS for quantitation of the prodrug, L-dopa or carbidopa. The in vitro bioconversion was assessed by monitoring both time-dependent depletion of the prodrug and the formation of the corresponding L-dopa or carbidopa.

[19] = 7-Day stability study, 4′ monophosphate combination solution; type: physicochemical; settings: combination solution: L-dopa 4′-monophosphate 200 mg/mL + carbidopa 4′-monophosphate 50 mg/mL, pH 7.4, room temperature
Method: In addition, a solution combining the L-dopa 4′-monophosphate at 200 mg/mL and carbidopa 4′-monophosphate at 50 mg/mL was monitored over 7 days at room temperature. These samples were prepared with and without purging with nitrogen to remove oxygen.

[20] = L-dopa 4′-monophosphate/carbidopa 4′-monophosphate 4:1, 16-hour subcutaneous infusion in rats; type: in vivo; settings: 4:1, SC bolus 60/14 mg/kg then infusion 300/71 mg/kg
Method: After 1.5 hours, the combination was dosed again via continuous infusion at a dose of 300/71 mg/kg over next 14.5 hours. Blood samples were collected at […], 0.25, 1, 6, 16, and 24 hours post dose. […] FIG. 7 provides a time-concentration profile for L-dopa and L-dopa 4′-monophosphate blood levels after administration of the combination of 4′-monophosphate prodrugs at a 4:1 ratio. […] Steady state concentration of ˜1 μg/mL was maintained over the infusion period for carbidopa. […] FIG. 9 provides a time-concentration profile for carbidopa and carbidopa 4′-monophosphate blood levels after administration of the combination of 4′-monophosphate prodrugs at a 4:1 ratio.

[21] = 15:1 L-dopa 4′-monophosphate/carbidopa 4′-monophosphate 16-hour SC infusion in mini-pigs; settings: 15:1, 48/3.2 mg/kg
Method: In this study, the pig received a 16-hour subcutaneous infusion of a combination of the L-dopa 4′-monophosphate and the carbidopa 4′-monophosphate together in an aqueous solution at a dose ratio of 15:1 without an initial bolus dose. The doses were 48/3.2 mg/kg for L-dopa 4′-monophosphate and the carbidopa 4′-monophosphate, respectively.

[22] = listed as 3′,4′-diphosphate prodrug of carbidopa
[23] = listed as diphosphate prodrug of carbidopa
[24] = listed as 4′-phosphate prodrug of L-dopa
[25] = listed as 4′-phosphate prodrug of carbidopa

| CLp (plasma clearance), Value ([1]; human) [L/h] | L-Dopa or Carbidopa Formation [16] | L-Dopa or Carbidopa Formation [17] | Compound | L-Dopa or Carbidopa Formation [5] | L-Dopa or Carbidopa Formation [6] | L-Dopa or Carbidopa Formation [7] | T1/2 [7] | L-Dopa or Carbidopa Formation [8] | T1/2 [8] | L-Dopa or Carbidopa Formation [9] | T1/2 [9] | stability and formation of L-dopa or carbidopa [10] | stability and formation of L-dopa or carbidopa [11] | stability and formation of L-dopa or carbidopa [12] | stability and formation of L-dopa or carbidopa [13] | stability and formation of L-dopa or carbidopa [14] | stability and formation of L-dopa or carbidopa [15] | L-Dopa or Carbidopa Formation [18] | T1/2 [18] [min] | further results |
| --- | --- | --- | --- | --- | --- | --- | --- | --- | --- | --- | --- | --- | --- | --- | --- | --- | --- | --- | --- | --- |
| 24 | – | – | N[C@@H](Cc1ccc(O)c(O)c1)C(=O)O [L-dopa, L-3,4-dihydroxyphenylalanine] | – | – | – | – | – | – | – | – | – | – | – | – | – | – | – | – | CLp Levodopa ([1]; human): 24 L/h |
| 100 | Yes | Yes | N[C@@H](Cc1ccc(OP(=O)(O)O)c(O)c1)C(=O)O [L-dopa 4′-phosphate, (S)-2-amino-3-(3-hydroxy-4-(phosphonooxy)phenyl)propanoic acid] | – | – | Yes | – | – | – | Yes | – | – | stable without formation of L-dopa or carbidopa observed | stable without formation of L-dopa or carbidopa observed | stable without formation of L-dopa or carbidopa observed | stable without formation of L-dopa or carbidopa observed | stable without formation of L-dopa or carbidopa observed | Yes | – | % Remaining After One Day ([2]; pH 7.0): >99%; % Remaining After 7 Days ([19]; Nitrogen Purged): >99%; % Remaining After 7 Days ([19]; Non-Purged): >99%; solubility compared to L-dopa and carbidopa (FIG. 1) [4]: increased solubility; T1/2 [16, 24]: rapidly dephosphorylated; T1/2 [17, 24]: rapidly dephosphorylated; exposure of remaining L-dopa 4′-monophosphate as % of levodopa [20]: ~22%; SC F (subcutaneous bioavailability), Value ([1]; human): 0.75; Bioconversion ratio (prodrug to active drug), Value [1]: 0.9; exposure of remaining L-dopa 4′-monophosphate as % of the levodopa exposure [21]: ~10% |
| 141 | Yes | Yes | C[C@@](Cc1ccc(OP(=O)(O)O)c(O)c1)(NN)C(=O)O [Carbidopa 4′-phosphate, Carbidopa 4′-monophosphate] | – | – | Yes | – | – | – | Yes | – | stable without formation of L-dopa or carbidopa observed | stable without formation of L-dopa or carbidopa observed | stable without formation of L-dopa or carbidopa observed | stable without formation of L-dopa or carbidopa observed | stable without formation of L-dopa or carbidopa observed | stable without formation of L-dopa or carbidopa observed | Yes | – | % Remaining After One Day ([2]; pH 6.8): >98%; % Remaining After 7 Days ([19]; Nitrogen Purged): >99%; % Remaining After 7 Days ([19]; Non-Purged): >97%; solubility compared to L-dopa and carbidopa (FIG. 1) [4]: increased solubility; T1/2 [16, 25]: rapidly dephosphorylated; T1/2 [17, 25]: rapidly dephosphorylated; exposure of remaining carbidopa 4′-monophosphate as % of carbidopa [20]: ~8%; SC F (subcutaneous bioavailability), Value ([1]; human): 0.65; Bioconversion ratio (prodrug to active drug), Value [1]: 0.7; exposure of remaining carbidopa 4′-monophosphate as % of the carbidopa exposure [21]: ~22% |

Second part, the compound before the results:

| Compound | CLp (plasma clearance), Value ([1]; human) [L/h] | L-Dopa or Carbidopa Formation [16] | L-Dopa or Carbidopa Formation [17] | L-Dopa or Carbidopa Formation [5] | L-Dopa or Carbidopa Formation [6] | L-Dopa or Carbidopa Formation [7] | T1/2 [7] | L-Dopa or Carbidopa Formation [8] | T1/2 [8] | L-Dopa or Carbidopa Formation [9] | T1/2 [9] | stability and formation of L-dopa or carbidopa [10] | stability and formation of L-dopa or carbidopa [11] | stability and formation of L-dopa or carbidopa [12] | stability and formation of L-dopa or carbidopa [13] | stability and formation of L-dopa or carbidopa [14] | stability and formation of L-dopa or carbidopa [15] | L-Dopa or Carbidopa Formation [18] | T1/2 [18] [min] | further results |
| --- | --- | --- | --- | --- | --- | --- | --- | --- | --- | --- | --- | --- | --- | --- | --- | --- | --- | --- | --- | --- |
| C[C@@](Cc1ccc(OP(=O)(O)O)c(OP(=O)(O)O)c1)(NN)C(=O)O [Carbidopa 3′,4′-diphosphate] | – | Yes | Yes | No | No | No | stable | No | stable | No | stable | stable without formation of L-dopa or carbidopa observed | stable without formation of L-dopa or carbidopa observed | stable without formation of L-dopa or carbidopa observed | stable without formation of L-dopa or carbidopa observed | stable without formation of L-dopa or carbidopa observed | stable without formation of L-dopa or carbidopa observed | Yes | 53 | % Remaining After One Day ([2]; pH 6.8): >97%; % Remaining After One Day [3]: >99%; Solubility ([4]; pH 5.5, Amorphous): >247 mg/mL; T1/2 [5, 22]: stable; T1/2 [5, 23]: not dephosphorylated; T1/2 [6, 22]: stable; T1/2 [6, 23]: not dephosphorylated; T1/2 [16, 23]: rapidly dephosphorylated; T1/2 [17, 23]: rapidly dephosphorylated |
| C[C@@](Cc1ccc(O)c(O)c1)(NN)C(=O)O [Carbidopa, (2S)-3-(3,4-dihydroxyphenyl)-2-hydrazino-2-methylpropanoic acid] | 18 | – | – | – | – | – | – | – | – | – | – | – | – | – | – | – | – | – | – | – |
| N[C@@H](Cc1ccc(O)c(OP(=O)(O)O)c1)C(=O)O [L-dopa 3′-phosphate] | – | – | – | Yes | Yes | Yes | 673 min | Yes | 737 min | Yes | 885 min | stable without formation of L-dopa or carbidopa observed | – | – | – | – | – | Yes | 20.6 | % Remaining After One Day ([2]; pH 7.0): >99%; Solubility ([4]; pH 7.0, Crystalline): >161 mg/mL; T1/2 [5]: 28 min; T1/2 [6]: 8.8 min |
| C[C@@](Cc1ccc(O)c(OP(=O)(O)O)c1)(NN)C(=O)O [Carbidopa 3′-phosphate, Carbidopa 3′-monophosphate] | – | – | – | Yes | Yes | Yes | 602 min | Yes | 724 min | Yes | 413 min | – | – | – | – | – | – | Yes | 20.5 | % Remaining After One Day ([2]; pH 6.5): >94%; Solubility ([4]; pH 7.1, Amorphous): >96 mg/mL; T1/2 [5]: 58 min; T1/2 [6]: 8.9 min |
